# Test results published in ChEMBL document CHEMBL5661975, “Discovery and pharmacologic characterization of CP-724,714, a selective ErbB2 tyrosine kinase inhibitor” (Cancer Res, 2007).
# Active and inactive are the calls of the source. No cut-off for these calls is given here.
# How the values were obtained:
# MDA-MB-453 [1] = test: Antitumor activity against human MDA-MB-453 expressing erbB2 cells xenografted bearing female athymic nu-nu CD-1 mouse assessed as inhibition in tumor growth at 25 mg/kg, po bid administration and measured at 29 day relative to control; format: functional; settings: MDA-MB-453, 696 h
# EFM-19 = test: Antiproliferative activity against human EFM-19 cells assessed as inhibition of cell growth; format: functional, cell-based
# MDA-MB-175-VII = test: Antiproliferative activity against human MDA-MB-175-VII cells assessed as inhibition of cell growth; format: functional, cell-based
# BT-474 [2] = test: Antitumor activity against human BT-474 expressing erbB2 cells xenografted bearing female athymic nu-nu CD-1 mouse assessed as decrease in tumor growth at 30 mg/kg, po bid administration and measured at 14 day; format: functional, organism-based
# CAMA-1 = test: Antiproliferative activity against human CAMA-1 cells assessed as inhibition of cell growth; format: functional, cell-based
# BT-474 [3] = test: Antitumor activity against human BT-474-erbB2 cells xenografted bearing female athymic nu-nu CD-1 mouse assessed as reduction in tumor erbB2 receptor phosphorylation, po administration by ELISA method; format: functional, organism-based
# BT-474 [4] = test: Antitumor activity against human BT-474 expressing erbB2 cells xenografted bearing female athymic nu-nu CD-1 mouse assessed as tumor regression at 100 mg/kg, po bid administration and measured at 9 day relative to control; format: functional
# BT-474 [5] = test: Antitumor activity against human BT-474 high expressing erbB2 cells xenografted bearing female athymic nu-nu CD-1 mouse assessed as inhibition in tumor regression at 100 mg/kg, po bid administrated for 8 to 40 days relative to control; format: functional; settings: time 8-40 day
# BT-474 [6] = test: Antitumor activity against human BT-474 expressing erbB2 cells xenografted bearing female athymic nu-nu CD-1 mouse assessed as inhibition in tumor growth at 50 to 100 mg/kg, po bid administration and measured at 4 day; format: functional, organism-based; settings: dose 50-100 mg/kg
# HCC1419 = test: Antiproliferative activity against human HCC1419 cells assessed as inhibition of cell growth; format: functional, cell-based
# BT-474 [7] = test: Antitumor activity against human BT-474 expressing erbB2 cells xenografted bearing female athymic nu-nu CD-1 mouse assessed as inhibition in tumor growth at 10 mg/kg, po bid administration and measured at 40 day relative to control; format: functional; settings: BT-474, 960 h
# MDA-MB-453 [8] = test: Antitumor activity against human MDA-MB-453 expressing erbB2 cells xenografted bearing female athymic nu-nu CD-1 mouse assessed as inhibition in tumor growth at 100 mg/kg, po bid administration and measured at 29 day relative to control; format: functional; settings: MDA-MB-453, 696 h
# ZR-75-30 = test: Antiproliferative activity against human ZR-75-30 cells assessed as inhibition of cell growth; format: functional, cell-based
# [9] = molecular target: Receptor tyrosine-protein kinase erbB-2 (Homo sapiens, UniProt P04626); test: Inhibition of human erbB2 intracellular domain transfected in mouse NIH3T3 cells assessed as potency reduction in autophosphorylation of the chimera erbB2 incubated for 2 hrs in the presence of EGF stimulation by westernblot analysis; format: cell-based
# Sequence of Receptor tyrosine-protein kinase erbB-2 (P04626 whole entry, the tested form may be a part): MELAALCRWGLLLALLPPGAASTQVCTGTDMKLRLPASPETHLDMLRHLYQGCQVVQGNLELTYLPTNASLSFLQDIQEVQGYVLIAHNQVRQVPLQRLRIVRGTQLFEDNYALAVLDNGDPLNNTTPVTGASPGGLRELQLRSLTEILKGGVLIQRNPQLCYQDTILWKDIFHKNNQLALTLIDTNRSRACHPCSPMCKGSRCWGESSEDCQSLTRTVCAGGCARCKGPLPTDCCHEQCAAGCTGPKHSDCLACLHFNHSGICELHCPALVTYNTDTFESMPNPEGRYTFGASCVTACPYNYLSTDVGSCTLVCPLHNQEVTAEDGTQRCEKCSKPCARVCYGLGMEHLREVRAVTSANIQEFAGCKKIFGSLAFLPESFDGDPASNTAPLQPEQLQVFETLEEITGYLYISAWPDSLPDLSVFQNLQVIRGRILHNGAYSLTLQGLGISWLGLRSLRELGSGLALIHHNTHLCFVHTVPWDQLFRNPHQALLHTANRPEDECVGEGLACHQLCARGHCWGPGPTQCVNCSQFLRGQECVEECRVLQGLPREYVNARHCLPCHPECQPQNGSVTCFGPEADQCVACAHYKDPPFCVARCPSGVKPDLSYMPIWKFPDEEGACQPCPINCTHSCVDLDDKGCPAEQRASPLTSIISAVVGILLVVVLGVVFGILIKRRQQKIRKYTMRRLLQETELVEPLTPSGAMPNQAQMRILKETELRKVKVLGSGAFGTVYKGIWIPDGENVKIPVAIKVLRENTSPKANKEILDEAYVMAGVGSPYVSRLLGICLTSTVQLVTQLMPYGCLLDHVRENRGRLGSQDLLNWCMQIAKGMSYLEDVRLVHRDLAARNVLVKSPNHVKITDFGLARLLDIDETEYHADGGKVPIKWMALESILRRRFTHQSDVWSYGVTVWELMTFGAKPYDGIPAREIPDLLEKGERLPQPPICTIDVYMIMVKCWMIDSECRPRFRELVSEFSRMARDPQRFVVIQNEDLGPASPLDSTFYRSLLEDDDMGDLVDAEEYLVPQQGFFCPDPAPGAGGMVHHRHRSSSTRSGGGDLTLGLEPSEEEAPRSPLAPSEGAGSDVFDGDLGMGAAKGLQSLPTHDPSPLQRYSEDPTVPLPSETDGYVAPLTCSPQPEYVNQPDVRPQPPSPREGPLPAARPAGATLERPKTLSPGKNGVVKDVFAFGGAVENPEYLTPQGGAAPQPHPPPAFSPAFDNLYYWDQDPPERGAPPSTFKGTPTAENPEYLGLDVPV
# MDA-MB-453 [10] = test: Antiproliferative activity against human MDA-MB-453 cells assessed as inhibition of cell growth; format: functional, cell-based
# [11] = Antiproliferative activity against human SUM225CWN cells assessed as inhibition of cell growth; format: functional, cell-based
# [12] = Antiproliferative activity against human EFM-192A cells assessed as inhibition of cell growth; format: functional, cell-based
# MDA-MB-231 = test: Antitumor activity against human MDA-MB-231 low expressing erbB2 cells xenografted bearing female athymic nu-nu CD-1 mouse assessed as inhibition in tumor growth at 100 mg/kg, po bid administrated for 14 to 31 days relative to control; format: functional; settings: time 14-31 day
# FRE [13] = test: Antitumor activity against human erbB2 transfected FRE cells xenografted bearing female athymic nu-nu CD-1 mouse assessed as tumor erbB2 receptor phosphorylation at 3.125 to 100 mg/kg, po administration by ELISA method; format: functional, organism-based; settings: dose 3.125-100 mg/kg
# BT-474 [14] = test: Antitumor activity against human BT-474 high expressing erbB2 cells xenografted bearing female athymic nu-nu CD-1 mouse assessed as reduction in tumor phospho-Akt level at 30 mg/kg, po after 0.5 hrs administration by western blot analysis relative to control; format: functional; parameters: scale not given: the % may be the effect or the level left
# [15] = Toxicity in human erbB2 transfected FRE cells xenografted bearing female athymic nu-nu CD-1 mouse assessed as body weight loss at 50 mg/kg, po QD administrated for 8 to 40 days; format: organism-based; settings: in vivo, time 8-40 day
# [16] = Plasma concentration in human erbB2 transfected FRE cells xenografted bearing female athymic nu-nu CD-1 mouse at 25 mg/kg, po measured at 30 mins by liquid chromatography-tandem mass spectrometry analysis; format: ADME, organism-based
# BT-474 [17] = test: Antiproliferative activity against human BT-474 cells assessed as inhibition of cell growth; format: functional, cell-based
# MDA-MB-453 [18] = test: Antitumor activity against human MDA-MB-453 high expressing erbB2 cells xenografted bearing female athymic nu-nu CD-1 mouse assessed as inhibition in tumor regression at 100 mg/kg, po bid administrated for 8 to 40 days relative to control; format: functional; settings: time 8-40 day
# BT-474 [19] = test: Induction of cell cycle arrest in Her2-amplified human BT-474 cells overexpressing erbB2 assessed as increase in G1 phase at 1 micromol/L incubated for 24 hrs by flow cytometry analysis relative to control; format: functional; settings: dose 1 µmol/L, at 1 µM
# [20] = Cmax in human erbB2 transfected FRE cells xenografted bearing female athymic nu-nu CD-1 mouse at 50 mg/kg, po QD administrated for 8 to 40 days by liquid chromatography-tandem mass spectrometry analysis; format: ADME, organism-based; settings: in vivo, time 8-40 day
# FRE [21] = test: Antitumor activity against human erbB2 transfected FRE cells xenografted bearing female athymic nu-nu CD-1 mouse assessed as increase in cleaved caspase-3 cells at 100 mg/kg, po administration and measured at 8 hrs by immunohistochemical analysis; format: functional, organism-based
# BT-474 [22] = test: Antitumor activity against human BT-474 high expressing erbB2 cells xenografted bearing female athymic nu-nu CD-1 mouse assessed as inhibition in tumor growth at 100 mg/kg, po bid administrated for 8 to 40 days relative to control; format: functional; settings: time 8-40 day
# BT-474 [23] = test: Antitumor activity against human BT-474 high expressing erbB2 cells xenografted bearing female athymic nu-nu CD-1 mouse assessed as reduction in tumor phospho-Erk level at 30 to 100 mg/kg, po after 0.5 hrs administration by western blot analysis relative to control; format: functional; parameters: scale not given: the % may be the effect or the level left; settings: dose 30-100 mg/kg
# [24] = Antitumor activity against human erbB2 transfected FRE cells xenografted bearing female athymic nu-nu CD-1 mouse assessed as reduction in tumor erbB2 receptor phosphorylation at 25 mg/kg, po and measured at 30 mins by ELISA method relative to control; format: functional; parameters: scale not given: the % may be the effect or the level left; settings: 0.5 h
# MDA-MB-468 = test: Antiproliferative activity against human MDA-MB-468 cells assessed as inhibition of cell growth; format: functional, cell-based
# MDA-MB-453 [25] = test: Antitumor activity against human MDA-MB-453 high expressing erbB2 cells xenografted bearing female athymic nu-nu CD-1 mouse assessed as inhibition in tumor growth at 100 mg/kg, po bid administrated for 8 to 40 days relative to control; format: functional; settings: time 8-40 day
# BT-474 [26] = test: Antitumor activity against human BT-474 cells expressing erbB2 xenografted bearing female athymic nu-nu CD-1 mouse assessed as inhibition in tumor growth at 100 mg/kg, po bid administration and measured at 40 day relative to control; format: functional; settings: BT-474, 960 h
smiles,measurement,setting,value
COCC(=O)NC/C=C/c1ccc2ncnc(Nc3ccc(Oc4ccc(C)nc4)c(C)c3)c2c1 [CP-724714],inhibition in vivo at 25 mg/kg,MDA-MB-453 [1],~19%
same,IC50,EFM-19,> 10000 nM
same,IC50,MDA-MB-175-VII,810 nM
same,Activity,BT-474 [2],Active
same,IC50,CAMA-1,> 10000 nM
same,EC50,BT-474 [3],0.77 µg/mL
same,Activity,BT-474 [4],~6%
same,inhibition in vivo at 100 mg/kg,BT-474 [5],83%
same,inhibition,BT-474 [6],Active
same,IC50,HCC1419,1000 nM
same,inhibition in vivo at 10 mg/kg,BT-474 [7],42%
same,inhibition in vivo at 100 mg/kg,MDA-MB-453 [8],83%
same,IC50,ZR-75-30,1500 nM
same,IC50,[9],32 nM
same,IC50,MDA-MB-453 [10],2500 nM
same,IC50,[11],990 nM
same,IC50,[12],960 nM
same,inhibition in vivo at 100 mg/kg,MDA-MB-231,46%
same,Activity,FRE [13],Active
same,Activity,BT-474 [14],42%
same,Activity,[15],Non-Toxic
same,concentration at 0.5 h,[16],~12500 ng/mL
same,IC50,BT-474 [17],250 nM
same,inhibition in vivo at 100 mg/kg,MDA-MB-453 [18],83%
same,Activity,BT-474 [19],83%
same,Cmax,[20],4500 ng/mL
same,Activity,FRE [21],Active
same,inhibition in vivo at 100 mg/kg,BT-474 [22],83%
same,Activity,BT-474 [23],~75%
same,Activity,[24],~75%
same,IC50,MDA-MB-468,> 10000 nM
same,inhibition in vivo at 100 mg/kg,MDA-MB-453 [25],83%
same,inhibition in vivo at 100 mg/kg,BT-474 [26],100%
